# Data: PubChem BioAssay (NCI)
#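 Grown in 96-well plates, cells were treated for 48 hours with each compound at five concentrations. Insufficient inhibition: endpoint recorded as highest concentration tested. GI50 = concentration required for 50% inhibition of growth. TGI: total growth inhibition.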
# Legend:
# Assay in all cases: NCI tumour cell line growth inhibition, 48 h
# HCT-15 colon = system: HCT-15 colon
# SK-OV-3 ovarian = system: SK-OV-3 ovarian
# HOP-62 NSCLC = system: HOP-62 NSCLC
# HT29 colon = system: HT29 colon
# SNB-75 CNS = system: SNB-75 CNS
# MCF7 breast = system: MCF7 breast
# MDA-MB-231 breast = system: MDA-MB-231 breast
# HS 578T breast = system: HS 578T breast
# NCI-H23 lung = system: NCI-H23 lung
# K-562 leukemia = system: K-562 leukemia
# UACC-62 melanoma = system: UACC-62 melanoma
# CAKI-1 renal = system: CAKI-1 renal
# HCT-116 colon = system: HCT-116 colon
# KM12 colon = system: KM12 colon
# SW-620 colon = system: SW-620 colon
# SK-MEL-2 melanoma = system: SK-MEL-2 melanoma
# RPMI-8226 leukemia = system: RPMI-8226 leukemia
# SF-268 CNS = system: SF-268 CNS
# ACHN renal = system: ACHN renal
# HCC-2998 colon = system: HCC-2998 colon
# NCI-H522 lung = system: NCI-H522 lung
# MDA-MB-435 = system: MDA-MB-435
# 786-0 renal = system: 786-0 renal
# MALME-3M melanoma = system: MALME-3M melanoma
# SF-539 CNS = system: SF-539 CNS
# HOP-92 NSCLC = system: HOP-92 NSCLC
# UO-31 renal = system: UO-31 renal
# A549 NSCLC = system: A549 NSCLC
# M14 melanoma = system: M14 melanoma
# TK-10 renal = system: TK-10 renal
# SR leukemia = system: SR leukemia
# SNB-19 CNS = system: SNB-19 CNS
# OVCAR-5 ovarian = system: OVCAR-5 ovarian
# OVCAR-4 ovarian = system: OVCAR-4 ovarian
# NCI/ADR-RES ovarian = system: NCI/ADR-RES ovarian
# SK-MEL-28 melanoma = system: SK-MEL-28 melanoma
# COLO 205 colon = system: COLO 205 colon
# PC-3 prostate = system: PC-3 prostate
# RXF 393 renal = system: RXF 393 renal
# T-47D breast = system: T-47D breast
# NCI-H226 lung = system: NCI-H226 lung
# U251 CNS = system: U251 CNS
# BT-549 breast = system: BT-549 breast
# IGROV1 ovarian = system: IGROV1 ovarian
# UACC-257 melanoma = system: UACC-257 melanoma
# NCI-H460 lung = system: NCI-H460 lung
# SF-295 CNS = system: SF-295 CNS
# SN12C renal = system: SN12C renal
# OVCAR-8 ovarian = system: OVCAR-8 ovarian
# DU-145 prostate = system: DU-145 prostate
# HL-60(TB) leukemia = system: HL-60(TB) leukemia
# MOLT-4 leukemia = system: MOLT-4 leukemia
# A498 renal = system: A498 renal
# CCRF-CEM leukemia = system: CCRF-CEM leukemia
# SK-MEL-5 melanoma = system: SK-MEL-5 melanoma
# OVCAR-3 ovarian = system: OVCAR-3 ovarian
structure (smiles),measurement,setting,value
O=C1Nc2ccccc2/C1=C\c1c[nH]c2ccc(Br)cc12,GI50,HCT-15 colon,2120 nM
same,TGI,HCT-15 colon,5.59 µM
same,GI50,SK-OV-3 ovarian,3.63 µM
same,TGI,SK-OV-3 ovarian,15 µM
same,GI50,HOP-62 NSCLC,3.5 µM
same,TGI,HOP-62 NSCLC,13.3 µM
same,GI50,HT29 colon,2750 nM
same,TGI,HT29 colon,6.56 µM
same,GI50,SNB-75 CNS,2680 nM
same,TGI,SNB-75 CNS,9.37 µM
same,GI50,MCF7 breast,2430 nM
same,TGI,MCF7 breast,11.2 µM
same,GI50,MDA-MB-231 breast,1630 nM
same,TGI,MDA-MB-231 breast,3.24 µM
same,GI50,HS 578T breast,2200 nM
same,TGI,HS 578T breast,8.33 µM
same,GI50,NCI-H23 lung,1920 nM
same,TGI,NCI-H23 lung,5.61 µM
same,GI50,K-562 leukemia,3.26 µM
same,TGI,K-562 leukemia,8 µM
same,GI50,UACC-62 melanoma,1710 nM
same,TGI,UACC-62 melanoma,3.72 µM
same,GI50,CAKI-1 renal,2670 nM
same,TGI,CAKI-1 renal,13.6 µM
same,GI50,HCT-116 colon,1610 nM
same,TGI,HCT-116 colon,3.11 µM
same,GI50,KM12 colon,633 nM
same,TGI,KM12 colon,2370 nM
same,GI50,SW-620 colon,2890 nM
same,TGI,SW-620 colon,10.7 µM
same,GI50,SK-MEL-2 melanoma,1990 nM
same,TGI,SK-MEL-2 melanoma,4.41 µM
same,GI50,RPMI-8226 leukemia,2320 nM
same,TGI,RPMI-8226 leukemia,7.93 µM
same,GI50,SF-268 CNS,3.3 µM
same,TGI,SF-268 CNS,16.2 µM
same,GI50,ACHN renal,2820 nM
same,TGI,ACHN renal,10.1 µM
same,GI50,HCC-2998 colon,1860 nM
same,TGI,HCC-2998 colon,3.45 µM
same,GI50,NCI-H522 lung,1830 nM
same,TGI,NCI-H522 lung,3.77 µM
same,GI50,MDA-MB-435,2440 nM
same,TGI,MDA-MB-435,6.89 µM
same,GI50,786-0 renal,3.82 µM
same,TGI,786-0 renal,14.7 µM
same,GI50,MALME-3M melanoma,5.55 µM
same,TGI,MALME-3M melanoma,25.1 µM
same,GI50,SF-539 CNS,4.77 µM
same,TGI,SF-539 CNS,17.1 µM
same,GI50,HOP-92 NSCLC,573 nM
same,TGI,HOP-92 NSCLC,3.3 µM
same,GI50,UO-31 renal,2220 nM
same,TGI,UO-31 renal,8.79 µM
same,GI50,A549 NSCLC,2260 nM
same,TGI,A549 NSCLC,6.23 µM
same,GI50,M14 melanoma,1670 nM
same,TGI,M14 melanoma,3.68 µM
same,GI50,TK-10 renal,3.99 µM
same,TGI,TK-10 renal,9.5 µM
same,GI50,SR leukemia,2590 nM
same,TGI,SR leukemia,6.32 µM
same,GI50,SNB-19 CNS,3.71 µM
same,TGI,SNB-19 CNS,25.5 µM
same,GI50,OVCAR-5 ovarian,2260 nM
same,TGI,OVCAR-5 ovarian,5.86 µM
same,GI50,OVCAR-4 ovarian,2700 nM
same,TGI,OVCAR-4 ovarian,22.5 µM
same,GI50,NCI/ADR-RES ovarian,2490 nM
same,TGI,NCI/ADR-RES ovarian,7.04 µM
same,GI50,SK-MEL-28 melanoma,4.16 µM
same,TGI,SK-MEL-28 melanoma,20.9 µM
same,GI50,COLO 205 colon,1770 nM
same,TGI,COLO 205 colon,3.23 µM
same,GI50,PC-3 prostate,2420 nM
same,TGI,PC-3 prostate,10.3 µM
same,GI50,RXF 393 renal,3.01 µM
same,TGI,RXF 393 renal,8.72 µM
same,GI50,T-47D breast,3.65 µM
same,TGI,T-47D breast,30.3 µM
same,GI50,NCI-H226 lung,6.23 µM
same,TGI,NCI-H226 lung,41.9 µM
same,GI50,U251 CNS,2390 nM
same,TGI,U251 CNS,7.09 µM
same,GI50,BT-549 breast,4.26 µM
same,TGI,BT-549 breast,19.5 µM
same,GI50,IGROV1 ovarian,2570 nM
same,TGI,IGROV1 ovarian,11.2 µM
same,GI50,UACC-257 melanoma,2910 nM
same,TGI,UACC-257 melanoma,14.5 µM
same,GI50,NCI-H460 lung,2110 nM
same,TGI,NCI-H460 lung,4.98 µM
same,GI50,SF-295 CNS,3.99 µM
same,TGI,SF-295 CNS,21.6 µM
same,GI50,SN12C renal,2630 nM
same,TGI,SN12C renal,7.6 µM
same,GI50,OVCAR-8 ovarian,2850 nM
same,TGI,OVCAR-8 ovarian,10.4 µM
same,GI50,DU-145 prostate,3.23 µM
same,TGI,DU-145 prostate,11 µM
same,GI50,HL-60(TB) leukemia,2790 nM
same,TGI,HL-60(TB) leukemia,7.88 µM
same,GI50,MOLT-4 leukemia,2760 nM
same,TGI,MOLT-4 leukemia,8.6 µM
same,GI50,A498 renal,1880 nM
same,TGI,A498 renal,6.31 µM
same,GI50,CCRF-CEM leukemia,3.18 µM
same,TGI,CCRF-CEM leukemia,10.5 µM
same,GI50,SK-MEL-5 melanoma,4.41 µM
same,TGI,SK-MEL-5 melanoma,17.2 µM
same,GI50,OVCAR-3 ovarian,2290 nM
same,TGI,OVCAR-3 ovarian,5.58 µM
